Assay results taken from US20160033533A1, “2-HYDROXYGLUTARATE AS A BIOMARKER FOR CHRONIC HYPOXIA” (MEMORIAL SLOAN KETTERING CANCER CENTER, priority 2011, published 2016).

Test system: SF188 cells
Assay: Viability of glutamine-starved hypoxic SF188 cells (trypan blue dye exclusion)
Assay type: cell-based, human
Settings: 0.5% O2, 48 h, glutamine-deficient medium supplemented with 7 mM dimethyl α-ketoglutarate
Method: In FIG. 2(A), SF188 cells were cultured for 24 h in complete medium equilibrated with either 21% O2 (Normoxia) or 0.5% O2 (Hypoxia). Culture medium was then removed from cells and analyzed for glutamine levels which were compared to the glutamine levels in fresh medium. Data are the mean±SEM of 3 independent experiments. […] Cells were cultured in complete medium equilibrated with 0.5% O2 for 24 h, followed by an additional 48 h at 0.5% O2 in either complete medium (+Gln), glutamine-deficient medium (−Gln), or glutamine-deficient medium supplemented with 7 mM dimethyl α-ketoglutarate (−Gln+αKG). All medium was pre-conditioned in 0.5% O2. Cell viability was determined by trypan blue dye exclusion. Data are the mean and range from 2 independent experiments. FIG. 2(C) depicts a model of the pathways for cit+4 and cit+5 production from [U-^13C]glutamine (glutamine+5). […] Cells were cultured for 24 h as in (A), followed by 4 h of culture in glutamine-deficient medium supplemented with 4 mM [U-^13C]glutamine. ^13C enrichment in cellular citrate was quantitated with GC-MS. […]
SF188 and RCC4 cells were cultured in Dulbecco's Modified Eagle's Medium (DMEM; Invitrogen 11965), 10% fetal bovine serum (FBS; Gemini Biosystems), 100 units/ml Penicillin, 100 ug/ml Streptomycin, 25 mM glucose, and 6 mM L-glutamine. […] Viability was determined by trypan blue exclusion. […]

## COC(=O)CCC(=O)C(=O)OC [dimethyl α-ketoglutarate]
  cell viability upon glutamine withdrawal: rescued the defect in cell viability
